molecular target: T1, USP7 (Homo sapiens, UniProt Q93009); assay: USP7, Ub-PLA2 assay; type: biochemical; conditions: Ub-PLA2 / NBD C6-HPC fluorescence, 30 minute preincubation; read-out: EC50 for inhibition of USP7
T1 construct: full length human USP7 protein; made in house
Procedure, shortened: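 Activity read as fluorescence in a Ub-PLA2 format, with percent inhibition calculated within each plate against DMSO (uninhibited) and NEM (background) wells. Vehicle was 100% DMSO.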

T1 sequence (Q93009 whole entry): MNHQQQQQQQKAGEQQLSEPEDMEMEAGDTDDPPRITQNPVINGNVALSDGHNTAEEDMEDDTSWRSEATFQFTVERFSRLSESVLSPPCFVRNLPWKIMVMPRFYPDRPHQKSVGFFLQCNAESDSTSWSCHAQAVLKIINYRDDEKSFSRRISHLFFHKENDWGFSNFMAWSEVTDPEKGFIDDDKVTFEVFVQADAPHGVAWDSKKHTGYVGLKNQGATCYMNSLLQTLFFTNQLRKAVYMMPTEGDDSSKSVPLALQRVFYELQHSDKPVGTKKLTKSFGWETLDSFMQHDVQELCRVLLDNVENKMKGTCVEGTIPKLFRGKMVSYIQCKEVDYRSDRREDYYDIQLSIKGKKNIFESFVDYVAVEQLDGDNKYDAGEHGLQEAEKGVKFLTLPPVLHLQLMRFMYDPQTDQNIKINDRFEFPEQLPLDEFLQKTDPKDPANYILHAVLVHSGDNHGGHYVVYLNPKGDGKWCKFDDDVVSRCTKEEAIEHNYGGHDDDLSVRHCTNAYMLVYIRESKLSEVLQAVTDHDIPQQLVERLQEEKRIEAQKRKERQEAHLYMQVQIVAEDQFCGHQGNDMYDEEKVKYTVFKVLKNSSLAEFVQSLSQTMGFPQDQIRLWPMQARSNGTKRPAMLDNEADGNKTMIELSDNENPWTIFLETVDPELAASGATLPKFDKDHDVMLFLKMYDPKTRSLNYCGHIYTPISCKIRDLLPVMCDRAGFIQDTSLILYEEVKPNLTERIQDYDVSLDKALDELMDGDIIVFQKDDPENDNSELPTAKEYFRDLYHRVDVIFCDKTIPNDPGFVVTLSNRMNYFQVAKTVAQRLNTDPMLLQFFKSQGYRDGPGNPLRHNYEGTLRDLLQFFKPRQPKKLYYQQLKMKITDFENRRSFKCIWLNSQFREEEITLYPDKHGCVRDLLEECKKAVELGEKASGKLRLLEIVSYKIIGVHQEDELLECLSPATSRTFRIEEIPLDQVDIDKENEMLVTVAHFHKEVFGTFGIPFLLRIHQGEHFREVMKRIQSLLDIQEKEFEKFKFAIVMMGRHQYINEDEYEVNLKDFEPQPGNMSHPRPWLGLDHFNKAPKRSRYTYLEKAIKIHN

Structure (SMILES) | EC50 [nM]
O=C(Nc1cccc(Cl)c1)c1cc([N+](=O)[O-])c(Sc2c(Cl)cncc2Cl)s1 [Example 142, N-(3-chlorophenyl)-5-((3,5-dichloropyridin-4-yl)thio)-4-nitrothiophene-2-carboxamide] | ≤ 1000
O=C(Nc1ccc(F)cc1F)c1cc([N+](=O)[O-])c(Sc2c(Cl)cncc2Cl)s1 [Example 143, 5-((3,5-dichloropyridin-4-yl)thio)-N-(2,4-difluorophenyl)-4-nitrothiophene-2-carboxamide] | ≤ 1000
O=C(NCc1cccc(OC(F)F)c1)c1cc([N+](=O)[O-])c(Sc2c(Cl)cncc2Cl)s1 [Example 145, 5-((3,5-dichloropyridin-4-yl)thio)-N-(3-(difluoromethoxy)benzyl)-4-nitrothiophene-2-carboxamide] | ≤ 1000
CN(C)c1cccc(CNC(=O)c2cc([N+](=O)[O-])c(Sc3c(Cl)cncc3Cl)s2)c1 [Example 146, 5-((3,5-dichloropyridin-4-yl)thio)-N-(3-(dimethylamino)benzyl)-4-nitrothiophene-2-carboxamide] | ≤ 1000
O=C(NCc1ccc2c(c1)OCCO2)c1cc([N+](=O)[O-])c(Sc2c(Cl)cncc2Cl)s1 [Example 147, 5-((3,5-dichloropyridin-4-yl)thio)-N-((2,3-dihydrobenzo[b][1,4]dioxin-6-yl)methyl)-4-nitrothiophene-2-carboxamide] | ≤ 1000
O=C(NCc1cccc(C(F)(F)F)c1)c1cc([N+](=O)[O-])c(Sc2c(Cl)cncc2Cl)s1 [Example 148, 5-((3,5-dichloropyridin-4-yl)thio)-4-nitro-N-(3-(trifluoromethyl)benzyl)thiophene-2-carboxamide] | ≤ 1000
CCOc1cccc(CNC(=O)c2cc([N+](=O)[O-])c(Sc3c(Cl)cncc3Cl)s2)c1 [Example 149, 5-((3,5-dichloropyridin-4-yl)thio)-N-(3-ethoxybenzyl)-4-nitrothiophene-2-carboxamide] | ≤ 1000
Cc1cccc(CNC(=O)c2cc([N+](=O)[O-])c(Sc3c(Cl)cncc3Cl)s2)c1 [Example 150, 5-((3,5-dichloropyridin-4-yl)thio)-N-(3-methylbenzyl)-4-nitrothiophene-2-carboxamide] | ≤ 1000
O=C(NCc1ccc2c(c1)OCO2)c1cc([N+](=O)[O-])c(Sc2c(Cl)cncc2Cl)s1 [Example 151, N-(benzo[d][1,3]dioxol-5-ylmethyl)-5-((3,5-dichloropyridin-4-yl)thio)-4-nitrothiophene-2-carboxamide] | ≤ 1000
O=C(Nc1ccc(Br)cc1)c1cc([N+](=O)[O-])c(Sc2c(Cl)cncc2Cl)s1 [Example 152, N-(4-bromophenyl)-5-((3,5-dichloropyridin-4-yl)thio)-4-nitrothiophene-2-carboxamide] | ≤ 1000
CC(C)(C)NC(=O)c1cc([N+](=O)[O-])c(Sc2c(Cl)cncc2Cl)s1 [Example 153, N-(tert-butyl)-5-((3,5-dichloropyridin-4-yl)thio)-4-nitrothiophene-2-carboxamide] | ≤ 1000
O=C(NC1CCCCC1)c1cc([N+](=O)[O-])c(Sc2c(Cl)cncc2Cl)s1 [Example 154, N-cyclohexyl-5-((3,5-dichloropyridin-4-yl)thio)-4-nitrothiophene-2-carboxamide] | ≤ 1000
COc1cccc(NC(=O)c2cc([N+](=O)[O-])c(Sc3c(Cl)cncc3Cl)s2)c1 [Example 156, 5-((3,5-dichloropyridin-4-yl)thio)-N-(3-methoxyphenyl)-4-nitrothiophene-2-carboxamide] | ≤ 1000
O=C(Nc1ccc2c(c1)OCO2)c1cc([N+](=O)[O-])c(Sc2c(Cl)cncc2Cl)s1 [Example 158, N-(benzo[d][1,3]dioxol-5-yl)-5-((3,5-dichloropyridin-4-yl)thio)-4-nitrothiophene-2-carboxamide] | ≤ 1000
O=C(Nc1cc(F)ccc1F)c1cc([N+](=O)[O-])c(Sc2c(Cl)cncc2Cl)s1 [Example 159, 5-((3,5-dichloropyridin-4-yl)thio)-N-(2,5-difluorophenyl)-4-nitrothiophene-2-carboxamide] | ≤ 1000
O=C(NCCN1CCCCC1)c1cc([N+](=O)[O-])c(Sc2c(Cl)cncc2Cl)s1 [Example 161, 5-((3,5-dichloropyridin-4-yl)thio)-4-nitro-N-(2-(piperidin-1-yl)ethyl)thiophene-2-carboxamide] | ≤ 1000
O=C(NCc1ccc(Cl)nc1)c1cc([N+](=O)[O-])c(Sc2c(Cl)cncc2Cl)s1 [Example 162, N-((6-chloropyridin-3-yl)methyl)-5-((3,5-dichloropyridin-4-yl)thio)-4-nitrothiophene-2-carboxamide] | ≤ 1000
COC(=O)c1ccc(CNC(=O)c2cc([N+](=O)[O-])c(Sc3c(Cl)cncc3Cl)s2)cc1 [Example 163, methyl 4-((5-((3,5-dichloropyridin-4-yl)thio)-4-nitrothiophene-2-carboxamido)methyl)benzoate] | ≤ 1000
O=C(Nc1cc(C(F)(F)F)n[nH]1)c1cc([N+](=O)[O-])c(Sc2c(Cl)cncc2Cl)s1 [Example 164, 5-((3,5-dichloropyridin-4-yl)thio)-4-nitro-N-(3-(trifluoromethyl)-1H-pyrazol-5-yl)thiophene-2-carboxamide] | ≤ 1000

Second part, the molecule after the results:

EC50 [nM] | Structure (SMILES)
≤ 1000 | O=C(NC1CC1)c1cc([N+](=O)[O-])c(Sc2c(Cl)cncc2Cl)s1 [Example 124, N-cyclopropyl-5-((3,5-dichloropyridin-4-yl)thio)-4-nitrothiophene-2-carboxamide]
≤ 1000 | CS(=O)(=O)c1cccc(CNC(=O)c2cc([N+](=O)[O-])c(Sc3c(Cl)cncc3Cl)s2)c1 [Example 125, 5-((3,5-dichloropyridin-4-yl)thio)-N-(3-(methylsulfonyl)benzyl)-4-nitrothiophene-2-carboxamide]
≤ 1000 | CN(C)CCCOc1cccc(CNC(=O)c2cc([N+](=O)[O-])c(Sc3c(Cl)cncc3Cl)s2)c1 [Example 126, 5-[(3,5-dichloro-4-pyridyl)sulfanyl]-N-[[3-(3-dimethylaminopropoxy)phenyl]methyl]-4-nitro-thiophene-2-carboxamide]
≤ 1000 | CSc1cccc(CN(C)C(=O)c2cc([N+](=O)[O-])c(Sc3c(Cl)cncc3Cl)s2)c1 [Example 127, 5-((3,5-dichloropyridin-4-yl)thio)-N-methyl-N-(3-(methylthio)benzyl)-4-nitrothiophene-2-carboxamide]
≤ 1000 | O=C(NCc1cccc(F)c1)c1cc([N+](=O)[O-])c(Sc2c(Cl)cncc2Cl)s1 [Example 128, 5-((3,5-dichloropyridin-4-yl)thio)-N-(3-fluorobenzyl)-4-nitrothiophene-2-carboxamide]
≤ 1000 | COc1ccc(Cl)cc1NC(=O)c1cc([N+](=O)[O-])c(Sc2c(Cl)cncc2Cl)s1 [Example 130, N-(5-chloro-2-methoxyphenyl)-5-((3,5-dichloropyridin-4-yl)thio)-4-nitrothiophene-2-carboxamide]
≤ 1000 | CC(O)c1ccc(NC(=O)c2cc([N+](=O)[O-])c(Sc3c(Cl)cncc3Cl)s2)cc1 (stereo not drawn) [Example 131, 5-((3,5-dichloropyridin-4-yl)thio)-N-(4-(1-hydroxyethyl)phenyl)-4-nitrothiophene-2-carboxamide]
≤ 1000 | COc1ccc(NC(=O)c2cc([N+](=O)[O-])c(Sc3c(Cl)cncc3Cl)s2)c(C)c1 [Example 132, 5-((3,5-dichloropyridin-4-yl)thio)-N-(4-methoxy-2-methylphenyl)-4-nitrothiophene-2-carboxamide]
≤ 1000 | O=C(Nc1cccc(Br)c1)c1cc([N+](=O)[O-])c(Sc2c(Cl)cncc2Cl)s1 [Example 133, N-(3-bromophenyl)-5-((3,5-dichloropyridin-4-yl)thio)-4-nitrothiophene-2-carboxamide]
≤ 1000 | O=C(Nc1ccccc1Cl)c1cc([N+](=O)[O-])c(Sc2c(Cl)cncc2Cl)s1 [Example 134, N-(2-chlorophenyl)-5-((3,5-dichloropyridin-4-yl)thio)-4-nitrothiophene-2-carboxamide]
≤ 1000 | O=C(Nc1c(Cl)cccc1Cl)c1cc([N+](=O)[O-])c(Sc2c(Cl)cncc2Cl)s1 [Example 135, N-(2,6-dichlorophenyl)-5-((3,5-dichloropyridin-4-yl)thio)-4-nitrothiophene-2-carboxamide]
≤ 1000 | O=C(Nc1ccc(F)cc1)c1cc([N+](=O)[O-])c(Sc2c(Cl)cncc2Cl)s1 [Example 136, 5-((3,5-dichloropyridin-4-yl)thio)-N-(4-fluorophenyl)-4-nitrothiophene-2-carboxamide]
≤ 1000 | O=C(Nc1ccc(F)c(Cl)c1)c1cc([N+](=O)[O-])c(Sc2c(Cl)cncc2Cl)s1 [Example 137, N-(3-chloro-4-fluorophenyl)-5-((3,5-dichloropyridin-4-yl)thio)-4-nitrothiophene-2-carboxamide]
≤ 1000 | O=C(Nc1cccc(F)c1)c1cc([N+](=O)[O-])c(Sc2c(Cl)cncc2Cl)s1 [Example 138, 5-((3,5-dichloropyridin-4-yl)thio)-N-(3-fluorophenyl)-4-nitrothiophene-2-carboxamide]
≤ 1000 | O=C(Nc1ccc(F)cc1C(F)(F)F)c1cc([N+](=O)[O-])c(Sc2c(Cl)cncc2Cl)s1 [Example 139, 5-((3,5-dichloropyridin-4-yl)thio)-N-(4-fluoro-2-(trifluoromethyl)phenyl)-4-nitrothiophene-2-carboxamide]
≤ 1000 | O=C(Nc1ccc(F)c(C(F)(F)F)c1)c1cc([N+](=O)[O-])c(Sc2c(Cl)cncc2Cl)s1 [Example 140, 5-((3,5-dichloropyridin-4-yl)thio)-N-(4-fluoro-3-(trifluoromethyl)phenyl)-4-nitrothiophene-2-carboxamid]
≤ 1000 | O=C(Nc1ccc(Cl)cc1Cl)c1cc([N+](=O)[O-])c(Sc2c(Cl)cncc2Cl)s1 [Example 141, N-(2,4-dichlorophenyl)-5-((3,5-dichloropyridin-4-yl)thio)-4-nitrothiophene-2-carboxamide]
